Data on 8 molecules can be found in patent US8785457B2 (Cellzome Limited, priority 2009, dated 2014).

Each structure is given as a SMILES string.

In experiment [1] the target is T1, DNA-dependent protein kinase (DNA-PK) (Homo sapiens, UniProt P78527).
T1 construct: endogenous in cells; host or cells: Jurkat, clone E6-1 (ATCC TIB-152) cell lysate
The experiment is described as follows: kinobeads assay, DNA-PK. The settings on record: kinobeads assay, Table 6; read-out: Inhibition values (IC50) DNAPK. The format is binding. How it is done:
(§1) The compounds of the present invention as described were tested in the mTOR kinobeads assay as described below. Briefly, test compounds (at various concentrations) and the affinity matrix with the immobilized phenylmorpholin-chromen ligand (8-(4-aminomethyl-phenyl)-2-morpholin-4-yl-chromen-4-one) were added to cell lysate aliquots and allowed to bind to the proteins in the lysate sample. After the incubation time the beads with captured proteins were separated from the lysate. Bound proteins were then eluted and the presence of mTOR, PI3K delta (PI3 Kd) and DNA-dependent protein kinase (DNA-PK) was detected and quantified using a specific antibody in a dot blot procedure and the Odyssey infrared detection system. Kinobeads assays for PI3K (WO-A 2008/015013) and for kinase selectivity profiling (WO 2006/134056) have been previously described.
(§2) The kinobeads assay was performed as a competitive binding assay in which test compounds were added directly into a cell lysate. Test compounds (at various concentrations) and the affinity matrix (beads with immobilized phenylmorpholin-chromen ligand) were added to cell lysate aliquots and allowed to bind to the proteins contained in the lysate sample. After the incubation time the beads with captured proteins were separated from the lysate. Bound proteins were then eluted and the presence of kinases was detected and quantified using a multiplexed immunodetection format. Dose response curves for individual kinases were generated and IC50 values calculated.
(§3) The affinity matrix (beads with immobilized phenylmorpholin-chromen ligand) was washed two times with 15 ml of 1×DP buffer containing 0.2% NP40 (IGEPAL® CA-630, Sigma, #13021) and then resupended in 5.5 ml of 1×DP buffer containing 0.2% NP40 (10% beads slurry).
(§4) 5×DP buffer: 250 mM Tris-HCl pH 7.4, 25% Glycerol, 7.5 mM MgCl2, 750 mM NaCl, 5 mM Na3VO4, filter the 5×-lysis buffer through 0.22 μm filter and store in aliquots at −80° C. The 5×DP buffer is diluted to 1×DP buffer containing 1 mM DTT and 25 mM NaF.
(§5) Stock solutions of test compounds were prepared in DMSO. In a 96 well plate 30 μl solution of diluted test compounds at 5 mM in DMSO were prepared. Starting with this solution a 1:3 dilution series (9 steps) was prepared. For control experiments (no test compound) a buffer containing 2% DMSO was used. Compound CZC00018052 served as a positive control (PI-103; Calbiochem catalogue number 528100).
(§6) Jurkat cells (ATCC catalogue number TIB-152 Jurkat, clone E6-1) were grown in 1 liter Spinner flasks (Integra Biosciences, #182101) in suspension in RPMI 1640 medium (Invitrogen, #21875-034) supplemented with 10% Fetal Bovine Serum (Invitrogen) at a density between 0.15×10^6 and 1.2×10^6 cells/ml. Cells were harvested by centrifugation, washed once with 1×PBS buffer (Invitrogen, #14190-094) and cell pellets were frozen in liquid nitrogen and subsequently stored at −80° C.
(§7) Jurkat cells were homogenized in a Potter S homogenizer in lysis buffer: 50 mM Tris-HCl, 0.8% NP40, 5% glycerol, 150 mM NaCl, 1.5 mM MgCl2, 25 mM NaF, 1 mM sodium vanadate, 1 mM DTT, pH 7.5. One complete EDTA-free tablet (protease inhibitor cocktail, Roche Diagnostics, 1873580) per 25 ml buffer was added. The material was dounced 10 times using a mechanized POTTER S, transferred to 50 ml falcon tubes, incubated for 30 minutes on ice and spun down for 10 min at 20,000 g at 4° C. (10,000 rpm in Sorvall SLA600, precooled). The supernatant was transferred to an ultracentrifuge (UZ)-polycarbonate tube (Beckmann, 355654) and spun for 1 hour at 100.000 g at 4° C. (33.500 rpm in Ti50.2, precooled). The supernatant was transferred again to a fresh 50 ml falcon tube, the protein concentration was determined by a Bradford assay (BioRad) and samples containing 50 mg of protein per aliquot were prepared. The samples were immediately used for experiments or frozen in liquid nitrogen and stored frozen at −80° C. […]

Experiment [2] has as its target T2, PI3Kalpha (PI3Ka) (Homo sapiens, UniProt P42336).
T2 construct: endogenous in cells; host or cells: cell lysate
As to the kind of experiment: kinobeads assay, PI3Kalpha. The class given is binding. The settings on record: kinobeads assay, Table 6. How it is done: as §2
(§8) The effect of the compounds on the kinases PI3Kalpha (PI3Ka), PI3 Kbeta (PI3 Kb) and PI3 Kgamma (PI3 Kg) were tested in the kinobeads assay as described (WO-A 2009/098021).

Experiment [3] concerns the target T3, PI3K delta (PI3 Kd) (Homo sapiens, UniProt O00329).
T3 construct: endogenous in cells; host or cells: Jurkat, clone E6-1 (ATCC TIB-152) cell lysate
As to the kind of experiment: kinobeads assay, PI3K delta. The format is binding. The conditions noted are these: kinobeads assay, Table 6; read-out: Inhibition values (IC50) PI3Kd. The method, then: as §1, §2, §3, §4, §5, §6, §7

Experiment [4] concerns the target T4, mTOR (Homo sapiens, UniProt P42345).
T4 construct: endogenous in cells; host or cells: Jurkat, clone E6-1 (ATCC TIB-152) cell lysate
The experiment is described as follows: mTOR kinobeads assay (competitive binding in Jurkat cell lysate, immunodetection). The settings on record: kinobeads assay, Table 6; read-out: Inhibition values (IC50) mTOR. How it is done:
The compounds of the present invention as described were tested in the mTOR kinobeads assay as described below. […] After the incubation time the beads with captured proteins were separated from the lysate. Bound proteins were then eluted and the presence of mTOR, PI3K delta (PI3 Kd) and DNA-dependent protein kinase (DNA-PK) was detected and quantified using a specific antibody in a dot blot procedure and the Odyssey infrared detection system.
as §2, §4
Stock solutions of test compounds were prepared in DMSO. In a 96 well plate 30 μl solution of diluted test compounds at 5 mM in DMSO were prepared. Starting with this solution a 1:3 dilution series (9 steps) was prepared. For control experiments (no test compound) a buffer containing 2% DMSO was used.
Jurkat cells were homogenized in a Potter S homogenizer in lysis buffer: 50 mM Tris-HCl, 0.8% NP40, 5% glycerol, 150 mM NaCl, 1.5 mM MgCl2, 25 mM NaF, 1 mM sodium vanadate, 1 mM DTT, pH 7.5. […] The material was dounced 10 times using a mechanized POTTER S, transferred to 50 ml falcon tubes, incubated for 30 minutes on ice and spun down for 10 min at 20,000 g at 4° C. (10,000 rpm in Sorvall SLA600, precooled). […] (33.500 rpm in Ti50.2, precooled). The supernatant was transferred again to a fresh 50 ml falcon tube, the protein concentration was determined by a Bradford assay (BioRad) and samples containing 50 mg of protein per aliquot were prepared. The samples were immediately used for experiments or frozen in liquid nitrogen and stored frozen at −80° C.
Jurkat cell lysate (approximately 50 mg protein per plate) was thawed in a water bath at room temperature and then kept on ice. […] The diluted cell lysate was stored on ice.
Plates were sealed and incubated for two hours in a cold room on a Thermoxer with shaking (750 rpm). Afterwards the plate was washed twice with 230 μl washing buffer (1×DP 0.4% NP40). […] The eluate was frozen quickly at −80° C. and stored at −20° C.
The kinases in the eluates were detected and quantified by spotting on Nitrocellulose membranes and using a first antibody directed against the kinase of interest and a fluorescently labeled secondary antibody (anti-mouse or anti-rabbit IRDye™ antibodies from Rockland).
Afterwards the membrane was washed three times for 10 minutes with PBS buffer containing 0.1% Tween 20 at room temperature. […] Afterwards the membrane was washed three times for 10 minutes each with 1×PBS buffer containing 0.1% Tween 20 at room temperature. Then the membrane was rinsed once with PBS buffer to remove residual Tween 20. The membrane was kept in PBS buffer at 4° C. and then scanned with the Odyssey instrument. Fluorescence signals were recorded and analysed according to the instructions of the manufacturer.

For experiment [5], the target named is T5, PI3 Kgamma (PI3 Kg) (Homo sapiens, UniProt P48736).
T5 construct: endogenous in cells; host or cells: cell lysate
As to the kind of experiment: kinobeads assay, PI3Kgamma. The settings on record: kinobeads assay, Table 6; read-out: Inhibition values (IC50) PI3Kg. The class given is binding. The method, then:
as §2, §8

The target of experiment [6] is T6, PI3 Kbeta (PI3 Kb) (Homo sapiens, UniProt P42338).
T6 construct: endogenous in cells; host or cells: cell lysate
The experiment is described as follows: kinobeads assay, PI3Kbeta. The class given is binding. The conditions noted are these: kinobeads assay, Table 6; read-out: Inhibition values (IC50) PI3Kb. How it is done: as §2, §8

T1 sequence (P78527 whole entry): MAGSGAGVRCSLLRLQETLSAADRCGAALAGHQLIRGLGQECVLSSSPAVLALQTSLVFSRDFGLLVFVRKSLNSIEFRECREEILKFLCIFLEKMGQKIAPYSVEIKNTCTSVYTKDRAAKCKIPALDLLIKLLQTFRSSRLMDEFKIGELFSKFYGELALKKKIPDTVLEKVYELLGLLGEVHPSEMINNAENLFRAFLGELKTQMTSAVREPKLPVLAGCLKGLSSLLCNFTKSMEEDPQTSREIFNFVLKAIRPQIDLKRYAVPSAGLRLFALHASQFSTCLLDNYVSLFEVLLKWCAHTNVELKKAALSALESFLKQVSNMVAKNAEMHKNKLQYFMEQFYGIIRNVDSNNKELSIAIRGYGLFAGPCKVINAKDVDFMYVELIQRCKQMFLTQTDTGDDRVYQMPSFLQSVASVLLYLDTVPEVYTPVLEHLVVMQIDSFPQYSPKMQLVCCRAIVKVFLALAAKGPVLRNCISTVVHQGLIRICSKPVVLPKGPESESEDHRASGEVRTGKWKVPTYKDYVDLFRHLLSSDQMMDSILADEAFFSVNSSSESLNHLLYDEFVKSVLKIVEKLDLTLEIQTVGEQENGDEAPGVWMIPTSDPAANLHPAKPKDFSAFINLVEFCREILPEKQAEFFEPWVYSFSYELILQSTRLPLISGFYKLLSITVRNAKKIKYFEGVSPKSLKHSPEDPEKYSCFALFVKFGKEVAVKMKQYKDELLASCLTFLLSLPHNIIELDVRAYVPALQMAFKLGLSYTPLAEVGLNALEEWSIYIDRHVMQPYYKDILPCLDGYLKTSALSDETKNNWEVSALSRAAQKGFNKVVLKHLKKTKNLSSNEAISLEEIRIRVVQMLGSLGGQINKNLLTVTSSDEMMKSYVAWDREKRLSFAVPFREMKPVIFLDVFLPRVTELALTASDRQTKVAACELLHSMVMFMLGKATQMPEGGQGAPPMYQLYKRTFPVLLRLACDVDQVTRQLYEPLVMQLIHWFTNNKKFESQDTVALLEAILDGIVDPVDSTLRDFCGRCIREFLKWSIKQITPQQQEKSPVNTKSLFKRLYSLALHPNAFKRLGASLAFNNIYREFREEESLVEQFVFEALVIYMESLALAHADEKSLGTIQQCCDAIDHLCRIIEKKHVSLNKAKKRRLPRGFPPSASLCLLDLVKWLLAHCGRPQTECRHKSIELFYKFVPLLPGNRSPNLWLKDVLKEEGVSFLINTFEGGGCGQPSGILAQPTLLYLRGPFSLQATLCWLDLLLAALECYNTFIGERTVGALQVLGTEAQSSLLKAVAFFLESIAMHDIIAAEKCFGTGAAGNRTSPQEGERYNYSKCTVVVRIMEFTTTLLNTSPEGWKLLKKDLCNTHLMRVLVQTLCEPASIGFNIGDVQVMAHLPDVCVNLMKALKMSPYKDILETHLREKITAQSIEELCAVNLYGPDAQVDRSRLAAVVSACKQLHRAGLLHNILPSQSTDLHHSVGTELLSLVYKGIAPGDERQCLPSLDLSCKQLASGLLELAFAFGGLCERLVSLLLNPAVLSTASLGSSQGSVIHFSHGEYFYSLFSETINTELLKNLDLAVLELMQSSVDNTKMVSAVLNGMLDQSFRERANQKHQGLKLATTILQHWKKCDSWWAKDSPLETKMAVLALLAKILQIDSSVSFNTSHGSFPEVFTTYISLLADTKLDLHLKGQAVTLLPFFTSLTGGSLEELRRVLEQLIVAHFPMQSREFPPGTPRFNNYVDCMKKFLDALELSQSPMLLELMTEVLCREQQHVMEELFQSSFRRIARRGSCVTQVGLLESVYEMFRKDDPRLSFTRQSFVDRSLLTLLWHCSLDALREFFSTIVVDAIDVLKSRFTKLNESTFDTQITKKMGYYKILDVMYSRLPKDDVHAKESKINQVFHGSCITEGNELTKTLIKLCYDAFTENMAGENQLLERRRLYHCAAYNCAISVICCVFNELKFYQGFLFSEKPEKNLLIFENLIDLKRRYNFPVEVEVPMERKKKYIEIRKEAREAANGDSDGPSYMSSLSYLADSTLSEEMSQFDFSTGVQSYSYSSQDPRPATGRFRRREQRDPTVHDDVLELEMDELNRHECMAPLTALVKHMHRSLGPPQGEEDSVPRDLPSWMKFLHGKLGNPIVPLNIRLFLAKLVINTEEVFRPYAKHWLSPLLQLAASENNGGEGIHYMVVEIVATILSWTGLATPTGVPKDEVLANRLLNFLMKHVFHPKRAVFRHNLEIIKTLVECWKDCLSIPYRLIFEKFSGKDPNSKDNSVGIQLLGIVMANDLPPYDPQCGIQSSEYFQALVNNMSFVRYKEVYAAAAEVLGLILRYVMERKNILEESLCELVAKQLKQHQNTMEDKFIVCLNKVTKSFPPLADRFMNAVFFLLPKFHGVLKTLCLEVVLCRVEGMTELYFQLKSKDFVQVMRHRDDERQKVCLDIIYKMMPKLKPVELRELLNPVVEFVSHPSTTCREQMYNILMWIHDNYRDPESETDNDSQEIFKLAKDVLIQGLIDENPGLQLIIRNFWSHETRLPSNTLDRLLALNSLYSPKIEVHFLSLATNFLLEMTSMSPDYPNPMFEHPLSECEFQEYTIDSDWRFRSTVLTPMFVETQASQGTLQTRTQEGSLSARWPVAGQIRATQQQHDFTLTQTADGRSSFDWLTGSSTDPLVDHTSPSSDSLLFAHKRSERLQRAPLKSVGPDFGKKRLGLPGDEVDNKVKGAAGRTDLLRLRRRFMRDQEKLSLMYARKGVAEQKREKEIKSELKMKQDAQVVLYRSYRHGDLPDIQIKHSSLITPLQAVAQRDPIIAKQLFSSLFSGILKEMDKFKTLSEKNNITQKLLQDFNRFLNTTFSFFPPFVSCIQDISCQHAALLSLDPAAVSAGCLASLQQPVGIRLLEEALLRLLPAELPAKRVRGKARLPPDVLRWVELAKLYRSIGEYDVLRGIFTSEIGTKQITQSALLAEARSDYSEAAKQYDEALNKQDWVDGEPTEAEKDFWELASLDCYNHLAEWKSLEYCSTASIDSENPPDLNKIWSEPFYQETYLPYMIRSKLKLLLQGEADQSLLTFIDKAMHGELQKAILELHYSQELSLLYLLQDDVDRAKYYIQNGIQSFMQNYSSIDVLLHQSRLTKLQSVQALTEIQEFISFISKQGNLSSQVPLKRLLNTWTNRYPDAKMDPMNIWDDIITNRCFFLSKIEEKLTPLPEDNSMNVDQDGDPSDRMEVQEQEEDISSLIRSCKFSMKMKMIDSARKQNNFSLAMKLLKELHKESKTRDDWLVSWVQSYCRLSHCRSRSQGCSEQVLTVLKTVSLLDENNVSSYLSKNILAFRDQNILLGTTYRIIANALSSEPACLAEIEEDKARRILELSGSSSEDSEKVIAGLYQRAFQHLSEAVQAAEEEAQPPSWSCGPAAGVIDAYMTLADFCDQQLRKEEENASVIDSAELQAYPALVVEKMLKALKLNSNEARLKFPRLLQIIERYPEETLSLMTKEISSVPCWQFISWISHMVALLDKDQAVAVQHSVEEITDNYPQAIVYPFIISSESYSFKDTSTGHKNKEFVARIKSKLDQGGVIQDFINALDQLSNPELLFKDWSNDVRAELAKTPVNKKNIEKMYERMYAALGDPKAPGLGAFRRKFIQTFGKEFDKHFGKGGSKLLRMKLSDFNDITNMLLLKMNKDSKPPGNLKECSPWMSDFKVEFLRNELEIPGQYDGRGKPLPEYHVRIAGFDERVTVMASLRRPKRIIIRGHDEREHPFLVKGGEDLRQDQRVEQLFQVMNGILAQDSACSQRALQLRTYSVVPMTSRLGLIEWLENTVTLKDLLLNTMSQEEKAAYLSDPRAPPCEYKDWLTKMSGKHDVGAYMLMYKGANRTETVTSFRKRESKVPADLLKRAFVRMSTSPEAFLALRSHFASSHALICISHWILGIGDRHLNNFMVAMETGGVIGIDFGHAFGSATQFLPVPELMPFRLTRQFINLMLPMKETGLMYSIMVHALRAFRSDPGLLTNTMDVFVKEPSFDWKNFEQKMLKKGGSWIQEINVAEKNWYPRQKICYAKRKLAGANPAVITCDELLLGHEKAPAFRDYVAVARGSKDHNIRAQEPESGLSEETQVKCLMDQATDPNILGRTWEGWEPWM

As to `CCOC(=O)N1Cc2nc(-c3ccc(NC(=O)NCCN)cc3)nc(N3CCOC[C@@H]3C)c2C1` [Example 112, (S)-ethyl 2-(4-(3-(2-aminoethyl)ureido)phenyl)-4-(3-methylmorpholino)-5H-pyrrolo[3,4-d]pyrimidine-6(7H)-carboxylate], the 50% inhibitory concentration (IC50) in experiment [1] is over 10 µM; in experiment [3], 0.1 to 1 µM; in experiment [4] it was under 0.1 µM; in experiment [5] it was 1 to 10 µM; in experiment [6] it was 1 to 10 µM. The “Inhibition values (IC50) PI3Ka” value in experiment [2] is recorded as “B (B >0.1 μM < 1 μM)”.
Take `CCOC(=O)N1Cc2nc(-c3ccc(NC(=O)NCC(N)=O)cc3)nc(N3CCOC[C@@H]3C)c2C1` [Example 114, (S)-ethyl 2-(4-(3-(2-amino-2-oxoethyl)ureido)phenyl)-4-(3-methylmorpholino)-5H-pyrrolo[3,4-d]pyrimidine-6(7H)-carboxylate]: the IC50 is over 10 µM in experiment [1]; 0.1 to 1 µM in experiment [3]; 0.1 to 1 µM in experiment [4]; 1 to 10 µM in experiment [5]; 1 to 10 µM in experiment [6]. In addition, the “Inhibition values (IC50) PI3Ka” value in experiment [2] was “B (B >0.1 μM < 1 μM)”.
`CCOC(=O)N1Cc2nc(-c3ccc(NC(=O)NCC(=O)O)cc3)nc(N3CCOC[C@@H]3C)c2C1` [Example 115, (S)-2-(3-(4-(6-(ethoxycarbonyl)-4-(3-methylmorpholino)-6,7-dihydro-5H-pyrrolo[3,4-d]pyrimidin-2-yl)phenyl)ureido)acetic acid]: the IC50 was over 10 µM in experiment [1]; over 10 µM in experiment [3]; 0.1 to 1 µM in experiment [4]; over 10 µM in experiment [5]; over 10 µM in experiment [6]. Moreover, the “Inhibition values (IC50) PI3Ka” value in experiment [2] is “D (D >10 μM)”.
With `CCNC(=O)Nc1cnc(-c2nc3c(c(N4CCOC[C@@H]4C)n2)CN(C(=O)OCC)C3)cn1` [Example 116, (S)-ethyl-2-(5-(3-ethylureido)pyrazin-2-yl)-4-(3-methylmorpholino)-5H-pyrrolo[3,4-d]pyrimidine-6(7H)-carboxylate], the IC50 in experiment [1] is over 10 µM; in experiment [2] (read-out: Inhibition values (IC50) PI3Ka) it was 1 to 10 µM; in experiment [3], over 10 µM; in experiment [4], 0.1 to 1 µM; in experiment [5], over 10 µM; in experiment [6], over 10 µM.
As to `CCNC(=O)Nc1ccc(-c2nc3c(c(N4CCOC[C@@H]4C)n2)CN(C2CCN(C(C)=O)CC2)C3)cc1F` [Example 117, (S)-1-(4-(6-(1-acetylpiperidin-4-yl)-4-(3-methylmorpholino)-6,7-dihydro-5H-pyrrolo[3,4-d]pyrimidin-2-yl)-2-fluorophenyl)-3-ethylurea], the half-maximal inhibitory concentration (IC50) in experiment [1] was over 10 µM; in experiment [3] it was over 10 µM; in experiment [4], 0.1 to 1 µM; in experiment [5] it was over 10 µM; in experiment [6] it was over 10 µM. Moreover, the “Inhibition values (IC50) PI3Ka” value in experiment [2] is given as “D (D >10 μM)”.
`CCOC(=O)N1Cc2nc(-c3ccc(NC(=O)Nc4cccnc4)cc3)nc(N3CCOC[C@@H]3C)c2C1` [Example 118, (S)-ethyl 4-(3-methylmorpholino)-2-(4-(3-(pyridin-3-yl)ureido)phenyl)-5H-pyrrolo[3,4-d]pyrimidine-6(7H)-carboxylate]: the concentration for half-maximal inhibition (IC50) in experiment [1] was over 10 µM; in experiment [3], over 10 µM; in experiment [4], 0.1 to 1 µM; in experiment [5], over 10 µM; in experiment [6], over 10 µM. The “Inhibition values (IC50) PI3Ka” value in experiment [2] is on record as “D (D >10 μM)”.
Consider `CCOC(=O)N1Cc2nc(-c3ccc(NC(=O)Nc4ccc(CO)cc4)cc3)nc(N3CCOC[C@@H]3C)c2C1` [Example 119, (S)-ethyl 2-(4-(3-(4-(hydroxymethyl)phenyl)ureido)phenyl)-4-(3-methylmorpholino)-5H-pyrrolo[3,4-d]pyrimidine-6(7H)-carboxylate], for which the IC50 in experiment [1] is over 10 µM; in experiment [3], over 10 µM; in experiment [4], 0.1 to 1 µM; in experiment [5] it was over 10 µM; in experiment [6] it was over 10 µM. Moreover, the “Inhibition values (IC50) PI3Ka” value in experiment [2] is “D (D >10 μM)”.
With `CCNC(=O)Nc1ccc(-c2nc3c(c(N4CCOC[C@@H]4C)n2)CN(C(=O)C2CCN(C(C)=O)CC2)C3)cc1F` [Example 123, (S)-1-(4-(6-(1-acetylpiperidine-4-carbonyl)-4-(3-methylmorpholino)-6,7-dihydro-5H-pyrrolo[3,4-d]pyrimidin-2-yl)-2-fluorophenyl)-3-ethylurea], the IC50 is over 10 µM in experiment [1]; over 10 µM in experiment [3]; 0.1 to 1 µM in experiment [4]; over 10 µM in experiment [5]; over 10 µM in experiment [6]. The “Inhibition values (IC50) PI3Ka” value in experiment [2] is “D (D >10 μM)”.
